Test results as given in US9416126B2, “Compounds inhibiting leucine-rich repeat kinase enzyme activity” (Merck Sharp & Dohme Corp., priority 2013, dated 2016).

Target: LRRK2(G2019S mutation, GST-LRRK2(amino acids 970-2527)) (Homo sapiens (Human), UniProt Q5S007, G2019S)
Assay: LRRK2 Km ATP LanthaScreen Assay
Type: biochemical
Settings: Km ATP (184 μM ATP solution), G2019S LRRK2, mean IC50
Procedure: Unless otherwise noted, all LRRK2 IC50 data presented in tables refers to the LRRK2 Km ATP LanthaScreen™ Assay that is described in the Biological Assay section.
The data presented for the 5 mM and Km ATP LanthaScreen™ Assay represents mean IC50 values based on several test results and may have reasonable. deviations depending on the specific conditions and reagents used. Reagents for the LRRK2 5 mM and Km ATP LanthaScreen™ Assay were purchased from Life Technologies Corporation.
LRRK2 Km ATP LanthaScreen™ Assay
a) 400 nl of a 1:2.15 serial dilution of test compound(98 μM top assay concentration) is spotted via Labcyte Echo to certain wells in a 384 well black, untreated plate. Control wells contain 400 nl of either DMSO or 400 nl of a known inhibitor in DMSO.
b) 10 μl of a 2.5 nM LRRK2(G2019S mutation, GST-LRRK2(amino acids 970-2527)) enzyme solution in 1× assay buffer(50 mM Tris pH 8.5, 10 mM MgCl2, 0.01% Brij-35, 1 mM EGTA, 2 mM DTT, 0.05 mM NaVO4) is added to all wells.
c) A 30 minute room temperature incubation is followed by addition of 10 μl of 800 nM fluorescein labeled LRRKtide peptide substrate and 184 μM ATP solution in 1× assay buffer to all wells.
d) After a 60 minute room temperature incubation, 20 μl of TR-FRET Dilution Buffer(Invitrogen PV3756B) containing 4 nM Tb-labeled anti-phospho LRRKtide antibody and 20 mM EDTA is added to all wells.
e) Plates are incubated at room temperature for 1 hour and read on an Envision™ multi-mode plate reader with LanthaScreen™ settings. Results are analysed using Assay Data Analyzer.

Chain of LRRK2(G2019S mutation, GST-LRRK2(amino acids 970-2527)) (Q5S007 970-2527 G2019S): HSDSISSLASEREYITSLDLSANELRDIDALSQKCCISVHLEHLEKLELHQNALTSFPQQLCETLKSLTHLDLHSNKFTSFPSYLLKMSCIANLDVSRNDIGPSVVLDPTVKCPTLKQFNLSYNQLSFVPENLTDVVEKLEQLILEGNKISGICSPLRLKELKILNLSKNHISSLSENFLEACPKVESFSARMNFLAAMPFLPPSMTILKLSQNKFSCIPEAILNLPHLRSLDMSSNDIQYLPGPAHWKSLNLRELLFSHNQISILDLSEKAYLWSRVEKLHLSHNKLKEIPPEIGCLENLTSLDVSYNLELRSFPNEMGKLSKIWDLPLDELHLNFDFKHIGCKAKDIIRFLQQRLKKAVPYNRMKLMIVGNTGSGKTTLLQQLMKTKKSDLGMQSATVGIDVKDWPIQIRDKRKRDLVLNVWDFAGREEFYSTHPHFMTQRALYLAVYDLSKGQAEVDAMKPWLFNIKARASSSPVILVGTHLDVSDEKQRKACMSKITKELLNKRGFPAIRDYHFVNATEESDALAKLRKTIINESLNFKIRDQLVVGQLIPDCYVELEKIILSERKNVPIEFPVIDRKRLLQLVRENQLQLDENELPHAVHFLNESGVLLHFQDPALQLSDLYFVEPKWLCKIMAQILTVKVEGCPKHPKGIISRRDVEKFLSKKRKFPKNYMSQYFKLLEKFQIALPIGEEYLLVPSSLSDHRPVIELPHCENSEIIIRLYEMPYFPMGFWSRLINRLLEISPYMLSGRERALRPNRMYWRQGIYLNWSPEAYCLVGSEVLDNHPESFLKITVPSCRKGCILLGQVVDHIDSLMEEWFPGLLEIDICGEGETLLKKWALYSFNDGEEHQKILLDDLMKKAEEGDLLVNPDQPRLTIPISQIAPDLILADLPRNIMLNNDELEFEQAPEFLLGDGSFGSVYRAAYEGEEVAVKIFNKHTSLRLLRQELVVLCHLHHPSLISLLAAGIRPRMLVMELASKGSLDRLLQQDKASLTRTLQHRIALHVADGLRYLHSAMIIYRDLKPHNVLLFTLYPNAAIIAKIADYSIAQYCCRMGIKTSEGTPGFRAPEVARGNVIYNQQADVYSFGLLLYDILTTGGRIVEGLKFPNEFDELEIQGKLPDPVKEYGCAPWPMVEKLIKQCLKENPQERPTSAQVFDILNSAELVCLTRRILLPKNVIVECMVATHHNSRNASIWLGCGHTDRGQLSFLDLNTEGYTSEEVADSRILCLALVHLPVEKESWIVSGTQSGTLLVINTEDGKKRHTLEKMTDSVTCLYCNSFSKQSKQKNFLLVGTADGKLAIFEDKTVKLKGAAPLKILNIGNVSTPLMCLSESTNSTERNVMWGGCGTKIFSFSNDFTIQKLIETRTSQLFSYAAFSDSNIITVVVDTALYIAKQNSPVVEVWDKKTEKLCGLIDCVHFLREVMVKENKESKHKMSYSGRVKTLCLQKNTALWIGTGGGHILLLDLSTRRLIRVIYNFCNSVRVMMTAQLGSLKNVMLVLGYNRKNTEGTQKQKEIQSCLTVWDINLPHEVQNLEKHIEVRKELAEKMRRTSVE

Row | SMILES | IC50 [nM]
1 | CC(C)Oc1cc2c(-c3cc(N4CCN(C(C)C)C(=O)C4)ncn3)n[nH]c2cc1F [Example D69] | 3.09
2 | CC(C)Oc1cc2c(-c3cc(N4CCN(C)C(=O)C4)ncn3)n[nH]c2cc1F [Example D70] | 2.19
3 | COCCN1CCN(c2cc(-c3n[nH]c4cc(F)c(OC(C)C)cc34)ncn2)CC1=O [Example D71] | 1.63
4 | CC(C)Oc1cc2c(-c3cc(N4C[C@@H](C)N(C)[C@@H](C)C4)ncn3)n[nH]c2cc1F [Example D72] | 1.33
5 | COc1ccc2[nH]nc(-c3cc(N4C[C@H](F)[C@@H](F)C4)ncn3)c2c1 [Example E2] | 68.6
6 | COc1ccc2[nH]nc(-c3cc(N4C[C@@H](C)O[C@@H](C)C4)ncn3)c2c1 [Example E3] | 29.3
7 | COc1ccc2[nH]nc(-c3cc(N4CCN(S(C)(=O)=O)CC4)ncn3)c2c1 [Example E4] | 35.4
8 | COc1ccc2[nH]nc(-c3cc(N4CCN(C(C)=O)CC4)ncn3)c2c1 [Example E5] | 74.5
9 | COc1ccc2[nH]nc(-c3cc(N4CC5CCC(C4)O5)ncn3)c2c1 [Example E6] | 148
10 | COc1ccc2[nH]nc(-c3cc(N4CCN(C)CC4)ncn3)c2c1 [Example E7] | 28.2
11 | CCN1CCN(c2cc(-c3n[nH]c4ccc(OC)cc34)ncn2)CC1 [Example E8] | 24.3
12 | COc1ccc2[nH]nc(-c3cc(N4CCN(C5CC5)CC4)ncn3)c2c1 [Example E9] | 25.9
13 | COc1ccc2[nH]nc(-c3cc(N4CCNC(=O)C4)ncn3)c2c1 [Example E10] | 101
14 | CCN1CCN(c2cc(-c3n[nH]c4ccc(OC)cc34)ncn2)CC1=O [Example E11] | 78.3
15 | COc1ccc2[nH]nc(-c3cc(N4CCO[C@H](C)C4)ncn3)c2c1 [Example E12] | 28.5
16 | COc1ccc2[nH]nc(-c3cc(N4CCO[C@@H](C)C4)ncn3)c2c1 [Example E13] | 76.9
17 | CCOc1ccc2[nH]nc(-c3cc(N4CCN(S(C)(=O)=O)CC4)ncn3)c2c1 [Example F1] | 15.4
18 | CCOc1ccc2[nH]nc(-c3cc(N4C[C@@H](C)O[C@@H](C)C4)ncn3)c2c1 [Example F2] | 12.8
19 | CCOc1ccc2[nH]nc(-c3cc(N4C[C@H](F)[C@@H](F)C4)ncn3)c2c1 [Example F3] | 26.6
20 | CCOc1ccc2[nH]nc(-c3cc(N4CCN(C)CC4)ncn3)c2c1 [Example F4] | 26.9
21 | CCOc1ccc2[nH]nc(-c3cc(N4CCN(C5CC5)CC4)ncn3)c2c1 [Example F5] | 16.7
22 | CCOc1ccc2[nH]nc(-c3cc(N4CCNC(=O)C4)ncn3)c2c1 [Example F6] | 63.9
23 | CCOc1ccc2[nH]nc(-c3cc(N4CCN(C)C(=O)C4)ncn3)c2c1 [Example F7] | 37.1
24 | CCOc1ccc2[nH]nc(-c3cc(N4CCN(CC)CC4)ncn3)c2c1 [Example F8] | 12.6
25 | CCOc1ccc2[nH]nc(-c3cc(N4CCN(CC)C(=O)C4)ncn3)c2c1 [Example F9] | 16.7

Row | SMILES | IC50 [nM]
26 | CCOc1ccc2[nH]nc(-c3cc(N4CC5CCC(C4)O5)ncn3)c2c1 [Example F10] | 32.7
27 | CCOc1ccc2[nH]nc(-c3cc(N4CCN(C(C)=O)CC4)ncn3)c2c1 [Example F11] | 18
28 | CCOc1ccc2[nH]nc(-c3cc(N4CCO[C@H](C)C4)ncn3)c2c1 [Example F12] | 10.5
29 | CCOc1ccc2[nH]nc(-c3cc(N4CCO[C@@H](C)C4)ncn3)c2c1 [Example F13] | 41.2
30 | COCCOc1ccc2[nH]nc(-c3cc(N4CCN(S(C)(=O)=O)CC4)ncn3)c2c1 [Example G1] | 64.7
31 | COCCOc1ccc2[nH]nc(-c3cc(N4C[C@@H](C)O[C@@H](C)C4)ncn3)c2c1 [Example G2] | 76.6
32 | COCCOc1ccc2[nH]nc(-c3cc(N4C[C@H](F)[C@@H](F)C4)ncn3)c2c1 [Example G3] | 138
33 | COCCOc1ccc2[nH]nc(-c3cc(N4CCN(C)CC4)ncn3)c2c1 [Example G4] | 67.2
34 | COCCOc1ccc2[nH]nc(-c3cc(N4CCN(C5CC5)CC4)ncn3)c2c1 [Example G5] | 97
35 | COCCOc1ccc2[nH]nc(-c3cc(N4CCNC(=O)C4)ncn3)c2c1 [Example G6] | 136
36 | COCCOc1ccc2[nH]nc(-c3cc(N4CCN(C)C(=O)C4)ncn3)c2c1 [Example G7] | 69
37 | CCN1CCN(c2cc(-c3n[nH]c4ccc(OCCOC)cc34)ncn2)CC1 [Example G8] | 97
38 | CCN1CCN(c2cc(-c3n[nH]c4ccc(OCCOC)cc34)ncn2)CC1=O [Example G9] | 107
39 | COCCOc1ccc2[nH]nc(-c3cc(N4CCO[C@H](C)C4)ncn3)c2c1 [Example G10] | 42.8
40 | COCCOc1ccc2[nH]nc(-c3cc(N4CCO[C@@H](C)C4)ncn3)c2c1 [Example G11] | 101
41 | COCCOc1ccc2[nH]nc(-c3cc(N4CC5CCC(C4)O5)ncn3)c2c1 [Example G12] | 154
42 | COCCOc1ccc2[nH]nc(-c3cc(N4CCN(C(C)=O)CC4)ncn3)c2c1 [Example G13] | 128
43 | COC[C@@H](C)Oc1ccc2[nH]nc(-c3cc(N4CCOCC4)ncn3)c2c1 [Example H1] | 56.2
44 | COC[C@@H](C)Oc1ccc2[nH]nc(-c3cc(N4C[C@@H](C)O[C@@H](C)C4)ncn3)c2c1 [Example H2] | 39.1
45 | COC[C@@H](C)Oc1ccc2[nH]nc(-c3cc(N4CCO[C@H](C)C4)ncn3)c2c1 [Example H3] | 35.5
46 | COC[C@H](C)Oc1ccc2[nH]nc(-c3cc(N4C[C@@H](C)O[C@@H](C)C4)ncn3)c2c1 [Example H5] | 1.7
47 | COC[C@H](C)Oc1ccc2[nH]nc(-c3cc(N4CCN(S(C)(=O)=O)CC4)ncn3)c2c1 [Example H6] | 4.5
48 | COC[C@H](C)Oc1ccc2[nH]nc(-c3cc(N4CCN(C)CC4)ncn3)c2c1 [Example H7] | 2.08
49 | COC[C@H](C)Oc1ccc2[nH]nc(-c3cc(N4CC5CCC(C4)O5)ncn3)c2c1 [Example H8] | 9.93
50 | COC[C@H](C)Oc1ccc2[nH]nc(-c3cc(N4CCC5(CCC(=O)N5)CC4)ncn3)c2c1 [Example H9] | 4.36

Row | SMILES | IC50 [nM]
51 | COC[C@H](C)Oc1ccc2[nH]nc(-c3cc(N4CCC5(CC4)CC(=O)N(C)C5)ncn3)c2c1 [Example H10] | 2.87
52 | COC[C@H](C)Oc1ccc2[nH]nc(-c3cc(N4CCC5(CC4)CNC(=O)C5)ncn3)c2c1 [Example H11] | 2.85
53 | COC[C@H](C)Oc1ccc2[nH]nc(-c3cc(N4CC[C@@H](OC)C4)ncn3)c2c1 [Example H12] | 4.8
54 | COC[C@H](C)Oc1ccc2[nH]nc(-c3cc(N4CC[C@H](OC)C4)ncn3)c2c1 [Example H13] | 5.27
55 | COC[C@H](C)Oc1ccc2[nH]nc(-c3cc(N4CCC5(CCCO5)CC4)ncn3)c2c1 [Example H14] | 2.02
56 | COC[C@H](C)Oc1ccc2[nH]nc(-c3cc(N4CCC5(CCN(C)C5=O)CC4)ncn3)c2c1 [Example H15] | 3.71
57 | COC[C@H](C)Oc1ccc2[nH]nc(-c3cc(N4CCC5(CCNC5=O)CC4)ncn3)c2c1 [Example H16] | 2.83
58 | COC[C@H](C)Oc1ccc2[nH]nc(-c3cc(N4CCO[C@H](C)C4)ncn3)c2c1 [Example H17] | 2.79
59 | c1cnc(-c2ccc3[nH]nc(-c4cc(N5CCOCC5)ncn4)c3c2)cn1 [Example I1] | 34.7
60 | CS(=O)(=O)N1CCN(c2cc(-c3n[nH]c4ccc(-c5cnccn5)cc34)ncn2)CC1 [Example I2] | 19.2
61 | CC(C)Oc1ccc2[nH]nc(-c3cc(N4CCC(O)CC4)ncn3)c2c1 [Example J1] | 5.9
62 | CC(C)Oc1ccc2[nH]nc(-c3cc(N4CCN(CCO)CC4)ncn3)c2c1 [Example J2] | 7.4
63 | CC(C)Oc1ccc2[nH]nc(-c3cc(N4CCCCC4)ncn3)c2c1 [Example J3] | 10.6
64 | CC(C)Oc1ccc2[nH]nc(-c3cc(N4CCC4)ncn3)c2c1 [Example J4] | 7.9
65 | CC(C)Oc1ccc2[nH]nc(-c3cc(N4CCCC4)ncn3)c2c1 [Example J5] | 13.9
66 | CC(C)Oc1ccc2[nH]nc(-c3cc(N4C[C@@H](C)O[C@@H](C)C4)ncn3)c2c1 [Example J6] | 7.8
67 | CC(C)Oc1ccc2[nH]nc(-c3cc(N4C[C@H](O)[C@@H](N(C)C)C4)ncn3)c2c1 [Example J7] | 15.3
68 | CO[C@H]1CN(c2cc(-c3n[nH]c4ccc(OC(C)C)cc34)ncn2)C[C@@H]1O [Example J8] | 18.6
69 | CC(C)Oc1ccc2[nH]nc(-c3cc(N4CCO[C@H](C)C4)ncn3)c2c1 [Example J9] | 9.2
70 | CC(C)Oc1ccc2[nH]nc(-c3cc(N4C[C@H](F)[C@@H](F)C4)ncn3)c2c1 [Example J10] | 11.1
71 | CC(C)Oc1ccc2[nH]nc(-c3cc(N4CCCN(S(C)(=O)=O)CC4)ncn3)c2c1 [Example J11] | 51.3
72 | CC(C)Oc1ccc2[nH]nc(-c3cc(N4CC(n5cccn5)C4)ncn3)c2c1 [Example J12] | 22.6
73 | CC(C)Oc1ccc2[nH]nc(-c3cc(N4CC[S+]([O-])CC4)ncn3)c2c1 [Example J13] | 21
